We go through two compounds from patent US20100010039A1, “POLYMORPHIC CRYSTAL FORM OF A INDAN-2-YLAMINO-HYDROXYETHYL-QUINOLINONE MALEATE DERIVATIVE AS BETA-ADRENOCEPTOR AGONIST” (priority 2006, published 2010).

What all share (format): physicochemical
The nature of data set [1]: Stress testing: 1 month, 60° C. open container, relative humidity <30% (physico-chemical stability comparison). As to conditions: for Assay (HPLC), 1 month / Related substances (HPLC), 1 month / TG (moisture content), 1 month / XRPD (identity of the material), 1 month: after 1 month, 60° C. open, R.H. <30%; for Assay (HPLC), 1 month / Related substances (HPLC), 1 month / TG (moisture content), 1 month / XRPD (identity of the material), 1 month / Related substances (HPLC), Initial / Assay (HPLC), Initial / TG (moisture content), Initial / XRPD (identity of the material), Initial / Proneness to degradation on storage (in words): maleate; for Related substances (HPLC), Initial / Assay (HPLC), Initial / TG (moisture content), Initial / XRPD (identity of the material), Initial: before storage; for Related substances (HPLC), Initial: Qalpha value from release analysis, Amorphous value from recontrol analysis; for Assay (HPLC), Initial / TG (moisture content), Initial / XRPD (identity of the material), Initial: release / recontrol analysis; for Proneness to degradation on storage (in words): summary of both stress tests (Tables 5 and 6), 1 month, 60° C. The protocol:
(§1) Samples of crystal form Qalpha and amorphous (R)-5-[2-(5,6-diethyl-indan-2-ylamino)-1-hydroxyethyl]-8-hydroxy-1H-quinolin-2-one maleate are stress tested before and after storage for 1 month to provide for physico-chemical stability comparison.
(§2) In a first test the samples are stored at 60° C. in an open container with a relative humidity <30%. In a second test the samples are stored at 60° C. in an open container with a relative humidity of about 75%. The results are shown in Tables 5 and 6 below respectively.
(§3) The tests determine (a) purity and (b) assay as determined by high performance liquid chromatography (HPLC) using HP1100 from Agillent with a YMC-packs ODS-AQ 3 μm column; (c) identity of the material as determined by the X-ray diffraction pattern measured using a SCINTAG™ X-ray diffractometer with a CuK alpha radiation source (45 kV, 40 mA); and (d) moisture content determined using a TGA851e Mettler Toledo STAR System thermogravimetry analysis balance with nitrogen flow 50 ml/min.

A short description of data set [2]: Stress testing: 1 month, 60° C./75% RH open container (physico-chemical stability comparison). As to conditions: for XRPD (identity of the material), 1 month / Assay (HPLC), 1 month / Related substances (HPLC), 1 month / TG (moisture content), 1 month: after 1 month, 60° C./75% RH open; for Assay (HPLC), 1 month / Related substances (HPLC), 1 month / TG (moisture content), 1 month / Assay (HPLC), Initial / Related substances (HPLC), Initial / TG (moisture content), Initial / XRPD (identity of the material), Initial: maleate; for Assay (HPLC), Initial / Related substances (HPLC), Initial / TG (moisture content), Initial / XRPD (identity of the material), Initial: before storage, release / recontrol analysis. As to the method: as §1, §2, §3

The nature of data set [3]: Solubility behaviour / kinetic of dissolution in comparison to the amorphous part.

SMILES strings stand for the structures. Structures can show the parent of a compound that is named as a salt. Marks after values point to notes of the source that are not given here. Some results are limits rather than exact numbers.

For `CCc1cc2c(cc1CC)CC(NC[C@H](O)c1ccc(O)c3[nH]c(=O)ccc13)C2` [Amorphous, (R)-5-[2-(5,6-diethyl-indan-2-ylamino)-1-hydroxyethyl]-8-hydroxy-1H-quinolin-2-one maleate, reference compound], in data set [1], the “Assay (HPLC), 1 month” value worked out at 91.5%; the “Related substances (HPLC), 1 month” value turned out to be 4.3%; the “TG (moisture content), 1 month” value is given as 0.74%; the “XRPD (identity of the material), 1 month” value was “Amorphous”. In data set [1], the “Related substances (HPLC), Initial” value was found to be 0.22%#; the “Assay (HPLC), Initial” value was 99.7%#; the “TG (moisture content), Initial” value is 1.8%#; the “XRPD (identity of the material), Initial” value is reported as “Amorphous#”. For the same compound, the “Proneness to degradation on storage (in words)” value in data set [1] (listed as amorphous material) is recorded as “more prone to degradation than Qalpha”. In addition, in data set [2], the “XRPD (identity of the material), 1 month” value was “Qalpha”; the “Assay (HPLC), 1 month” value amounted to 98.9%; the “Related substances (HPLC), 1 month” value was determined as 0.73%; the “TG (moisture content), 1 month” value was 0.23%. Besides, in data set [2], the “Assay (HPLC), Initial” value is given as 99.7%#; the “Related substances (HPLC), Initial” value amounted to 0.22%#; the “TG (moisture content), Initial” value is given as 1.8%#; the “XRPD (identity of the material), Initial” value is reported as “Amorphous#”. The “Conversion of solid form on storage (in words)” value in data set [2] (stored at 60° C./75% R.H.) is recorded as “converts to crystal form Qalpha”.

For the compound `CCc1cc2c(cc1CC)CC(NC[C@H](O)c1ccc(O)c3[nH]c(=O)ccc13)C2` [Qalpha, (R)-5-[2-(5,6-diethyl-indan-2-ylamino)-1-hydroxyethyl]-8-hydroxy-1H-quinolin-2-one maleate], in data set [1], the “Assay (HPLC), 1 month” value was 98.8%; the “Related substances (HPLC), 1 month” value came out at 0.25%; the “TG (moisture content), 1 month” value is less than 0.05%; the “XRPD (identity of the material), 1 month” value is given as “Qalpha”. Moreover, in data set [1], the “Related substances (HPLC), Initial” value turned out to be 0.23%*; the “Assay (HPLC), Initial” value is given as 100.2%*; the “TG (moisture content), Initial” value was determined as 0.07%*; the “XRPD (identity of the material), Initial” value is on record as “Qalpha*”. Moreover, in data set [1] (storage for 1 month, both stress tests), the “Changes after storage (in words)” value is reported as “No significant changes”. In data set [1] (listed as crystal form Qalpha), the “Proneness to degradation on storage (in words)” value is on record as “less prone to degradation or conversion than the amorphous form on storage”. Moreover, in data set [2], the “XRPD (identity of the material), 1 month” value is given as “Qalpha”; the “Assay (HPLC), 1 month” value is reported as 99.5%; the “Related substances (HPLC), 1 month” value was 0.26%; the “TG (moisture content), 1 month” value is reported as less than 0.05%. In data set [2], the “Assay (HPLC), Initial” value stood at 100.2%*; the “Related substances (HPLC), Initial” value worked out at 0.23%*; the “TG (moisture content), Initial” value came out at 0.07%*; the “XRPD (identity of the material), Initial” value was “Qalpha*”. Also, in data set [3], the “Solubility behaviour: kinetic of dissolution (in words)” value is given as “lower kinetic of dissolution”.
